# Experimental data taken from patent publication US6610744B2, “Methods of treatment with compounds having RARα receptor specific or selective activity” (Allergan, Inc., priority 1995, dated 2003).
# Key:
# [1] = tested on: RPMI 8226 cells (malignant myeloma); assay: RPMI 8226 cell culture assay (3H-thymidine incorporation); assay type: cell-based, human; conditions: FIG. 1; for growth of RPMI 8226 malignant cells: 96 hours; for growth of RPMI 8226 cells at low concentration: low concentration range 10^−12 to approximately 10^−9
# Experimental: (§1) All trans-retinoic acid (t-RA) (Sigma Chemicals Co., St. Louis, Mo.) was stored at −70° C. Prior to each experiment the compound was dissolved in 100% ethanol at 1 mM and diluted in culture medium immediately before use. All experiments were performed in subdued light. Controls were assayed using the same concentration of ethanol as present in the experimental plates and this concentration of diluent had no effect in either assay.
# The cell lines, RPMI 8226, ME-180 and AML-193 were obtained from the American Type Culture Collection (ATCC, Rockville, Md.). RPMI 8226 is a human hematopoietic cell line obtained from the peripheral blood of a patient with multiple myeloma. The cells resemble the lymphoblastoid cells of other human lymphocyte cell lines and secrete […] light chains of immunoglobulin. RPMI-8226 cells are grown in RPMI medium (Gibco) supplemented with 10% fetal bovine serum, glutamine and antibiotics. The cells were maintained as suspension cultures grown at 37° C. in a humidified atmosphere of 5% CO2 in air. The cells were diluted to a concentration of 1×10^5/ml twice a week.
# (§2) The method used for determination of the incorporation of radiolabeled thymidine was adapted from the procedure described by Shrivastav et al. RPMI-8226 cells were plated in a 96 well round bottom microtiter plate (Costar) at a density of 1,000 cells/well. To appropriate wells, retinoid test compounds were added at the final concentrations indicated for a final volume of 150 μl/well. The plates were incubated for 96 hours at 37° C. in a humidified atmosphere of 5% CO2 in air. Subsequently, 1 μCi of [5′-^3H]-thymidine (Amersham, U.K. 43 Ci/mmol specific activity) in 25 μl culture medium was added to each well and the cells were incubated for an additional 6 hours. The cultures were further processed as described below.
# (§3) The cell lines were then processed as follows: the cellular DNA was precipitated with 10% trichloroacetic acid onto glass fiber filter mats using a SKATRON multi-well cell harvester (Skatron Instruments, Sterling Va.). Radioactivity incorporated into DNA, as a direct measurement of cell growth, was measured by liquid scintillation counting. The numbers represent the mean disintegrations per minute of incorporated thymidine from triplicate wells±SEM.
# [2] = tested on: AML-193 cells (acute monocytic leukemia); assay: AML 193 cell culture assay (3H-thymidine incorporation); assay type: cell-based, human; conditions: FIG. 3; low concentrations
# Experimental: as §1
# AML-193 was established from the blast cells classified as M5 Acute Monocyte Leukemia. The growth factor, […] (GM-CSF) was required to establish this cell line and growth factors are necessary for its continuous proliferation in chemically defined medium. AML-193 cells were grown and maintained in Iscove's modified Dulbecco's medium supplemented with 10% fetal bovine serum, glutamine and antibiotics with 5 μg/ml insulin (Sigma Chemical Co.) and 2 ng/ml rh GM-CSF (R and D Systems). The cells were diluted to a concentration of 3×10^5/ml twice a week.
# as §2, with “AML-193” for “The method used for determination of the incorporation of radiolabeled thymidine was adapted from the procedure described by Shrivastav et al. RPMI-8226”, “U.K.,” for “U.K.”, “hours.” for “hours. The cultures were further processed as described below.”
# as §3
# [3] = tested on: limb bud mesenchymal cells; assay: Chondrogenesis suppression bioassay (teratogenic potency); assay type: cell-based; conditions: read-out: IC50 (50% inhibition of chondrogenesis); mouse limb bud spot cultures, 96 hours after plating; greater IC50 signifies lesser teratogenecity
# Experimental: High-density “spot” cultures of limb bud mesenchymal cells are used to compare the ability of various concentrations of test drugs to suppress chondrogenic differentiation as a bioassay. Forelimb buds of mouse embryos on day 12 of gestation (54±2 somites) are dissociated in a trypsin-EDTA solution, and the resultant single-cell suspension is plated as 20-μl spots (200,000 cells/spot) on plastic culture dishes. Retinoid concentrations ranging from 0.3 ng/ml to 3 μg/ml (1 nM−10 μM) are added to the culture medium (Eagle's MEM±10% fetal bovine serum, GIBCO) 24 hours after initial plating. Control cultures receive only the vehicle (ethanol, concentration≦1% by vol); Retinoic acid is used as a positive control in another set of cultures.
# The cultures are terminated 96 hours after plating, at which time the medium is removed and the cells are fixed for 1 hour in 10% formalin containing 0.5% cetylpyridinium chloride. The cultures are rinsed in acetic acid and stained for 1 hour in 0.5% Alcian blue solution at pH 1.0, differentiated in 3% acetic acid, and then dehydrated in ethanol and scored for chondrogenesis under the microscope. An absence or reduction in the number of cartilage nodules in stained cultures as compared with control cultures is taken as a measure of suppression of chondrogenesis. The number of cartilage nodules stained in the whole spot, mean number of nodules, and standard deviations are calculated for four replicate cultures per treatment. […] The IC50 values are expressed in nanogram per mililiter (ng/ml) units. An IC50 value of greater concentration in this assay signifies lesser teratogenecity.
# [4] = Weight loss in rats treated for 3 days; assay type: in vivo, rat; conditions: rats
# Experimental: Weight loss or gain that experimental animals experience upon administration of retinoid compounds is another test of the drug's toxicity, with significant weight loss at relatively low doses indicating a significant toxic side effect of the retinoid. In one experiment, groups of 5 rats were treated with varying doses (administered in corn oil) of a test retinoid for 3 days. The rats were euthanized 24 hours after the last dose.
# [5] = tested on: hairless mice [Crl:SKH1-hrBR]; assay: Eight day topical skin irritation assay in hairless mice; conditions: for Abrasion Score / Body Weight % gain or (loss) / Composite Score / Flaking Score / Mortality (out of 4): 5 days
# Experimental: More particularly, skin irritation was measured on a semi-quantitative scale by the daily subjective evaluation of skin flaking and abrasions. A single number, the topical irritation score, summarizes the skin irritation induced in an animal during the course of an experiment. The topical irritation score is calculated as follows. The topical irritation score is the algebraic sum of a composite flaking score and a composite abrasion score. The composite scores range from 0-9 and 0-8 for flaking and abrasions, respectively, and take into account the maximum severity, the time of onset, and the average severity of the flaking and abrasions observed.
# The severity of flaking is scored on a 5-point scale and the severity of abrasions is scored on a 4-point scale, with higher scores reflecting greater severity. The maximum severity component of the composite scores would be the highest daily severity score assigned to a given animal during the course of observation.
# For the time of onset component of the composite score, a score ranging from 0 to 4 is assigned as follows:
# The average severity component of the composite score is the sum of the daily flaking or abrasion scores divided by the number of observation days.
# To calculate the composite flaking and abrasion scores, the average severity and time of onset scores are summed and divided by 2. The result is added to the maximal severity score. The composite flaking and abrasion scores are then summed to give the overall topical irritation score. Each animal receives a topical irritation score, and the values are expressed as the mean±SD of the individual scores of a group of animals. Values are rounded to the nearest integer.
# Thus, female hairless mice [Crl:SKH1-hrBR] […] Treatments are applied to the dorsal skin in a total volume of 4 ml/kg (−0.1 ml).
# RXRβ = molecular target: T1, RXRβ (Homo sapiens, UniProt P28702); assay: Ligand binding assay, RXRβ
# T1 construct: made in house; host or cells: Baculovirus expression (insect cell extract)
# T1 sequence (P28702 1-533): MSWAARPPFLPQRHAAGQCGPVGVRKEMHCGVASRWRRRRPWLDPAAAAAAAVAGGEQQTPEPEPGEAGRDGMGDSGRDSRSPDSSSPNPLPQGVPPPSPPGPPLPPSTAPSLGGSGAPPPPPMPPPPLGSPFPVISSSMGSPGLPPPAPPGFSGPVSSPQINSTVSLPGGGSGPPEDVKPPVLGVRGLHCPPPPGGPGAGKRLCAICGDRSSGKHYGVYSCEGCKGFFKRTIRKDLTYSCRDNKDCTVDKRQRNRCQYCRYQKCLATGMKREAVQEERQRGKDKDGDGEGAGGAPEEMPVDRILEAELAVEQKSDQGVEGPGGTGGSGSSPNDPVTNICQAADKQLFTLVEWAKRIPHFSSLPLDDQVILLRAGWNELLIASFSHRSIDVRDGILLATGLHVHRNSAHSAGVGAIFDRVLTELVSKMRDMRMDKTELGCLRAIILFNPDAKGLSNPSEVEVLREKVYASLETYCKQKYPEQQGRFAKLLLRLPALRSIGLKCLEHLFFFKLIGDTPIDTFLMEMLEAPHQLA
# Experimental: (§4) All binding assays were performed in a similar fashion. All six receptor types were derived from the expressed receptor type (RARα, β, Γ and RXRα, β, Γ) expressed in Baculovirus. Stock solutions of all compounds were prepared as 10 mM ethanol solutions and serial dilutions carried out into 1:1 DMSO; ethanol. Assay buffers consisted of the following for all six receptor assays: 8% glycerol, 120 mM KCl 8 mM Tris, 5 mM CHAPS 4 mM DTT and 0.24 mM PMSF, pH-7.4@ room temperature.
# (§5) All receptor binding assays were performed in the same manner. The final assay volume was 250 μl and contained from 10-40 μg of extract protein depending on receptor being assayed along with 5 nM of [^3H] all-trans retinoic acid or 10 nM [^3H] 9-cis retinoic acid and varying concentrations of competing ligand at concentrations that ranged from 0-10^−5 M. The assays were formatted for a 96 well minitube system. Incubations were carried out at 4° C. until equilibrium was achieved. Non-specific binding was defined as that binding remaining in the presence of 1000 nM of the appropriate unlabeled retinoic acid isomer. At the end of the incubation period, 50 μl of 6.25% hydroxyapitite was added in the appropriate wash buffer. The wash buffer consisted of 100 mM KCl, 10 mM Tris and either 5 mM CHAPS (RXRα, β, Γ) or 0.5% Triton X-100 (RARα, β, Γ). The mixture was vortexed and incubated for 10 minutes at 4° C., centrifuged and the supernatant removed. The hydroxyapitite was washed three more times with the appropriate wash buffer. The receptor-ligand complex was adsorbed by the hydroxyapitite. The amount of receptor-ligand complex was determined by liquid scintillation counting of hydroxyapitite pellet.
# (§6) After correcting for non-specific binding, IC50 values were determined. […] The IC50 value was determined graphically from a loglogit plot of the data. The […] were determined by application of the Cheng-Prussof equation to the IC50 values, the labeled ligand concentration and the Kd of the labeled ligand.
# (§7) The results of ligand binding assay are expressed in Kd numbers. (See Cheng et al. Biochemical Pharmacology Vol. 22 pp 3099-3108, expressly incorporated herein by reference.)
# RXRΓ = molecular target: T2, RXRΓ (Homo sapiens, UniProt P48443); assay: Ligand binding assay, RXRΓ
# T2 construct: made in house; host or cells: Baculovirus expression (insect cell extract)
# T2 sequence (P48443 1-463): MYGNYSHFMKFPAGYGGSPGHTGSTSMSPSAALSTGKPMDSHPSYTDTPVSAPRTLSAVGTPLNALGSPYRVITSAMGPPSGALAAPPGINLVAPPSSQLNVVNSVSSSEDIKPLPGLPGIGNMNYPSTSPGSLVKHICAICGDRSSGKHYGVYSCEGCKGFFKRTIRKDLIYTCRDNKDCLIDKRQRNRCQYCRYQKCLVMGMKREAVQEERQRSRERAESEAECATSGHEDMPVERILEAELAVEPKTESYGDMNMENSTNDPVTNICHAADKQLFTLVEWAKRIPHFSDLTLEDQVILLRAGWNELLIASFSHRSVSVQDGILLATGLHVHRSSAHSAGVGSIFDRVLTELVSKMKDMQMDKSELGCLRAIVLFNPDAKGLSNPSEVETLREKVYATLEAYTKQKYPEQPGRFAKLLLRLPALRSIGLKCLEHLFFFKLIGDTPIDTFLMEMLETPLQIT
# Experimental: as §4, §5, §6, §7
smiles,measurement,setting,value
"CC1(C)CCC(C)(C)c2c(Br)cc(C(=O)Nc3ccc(C(=O)O)c(F)c3)cc21 [Compound 4, 2-Fluoro-4-[(4′-bromo-5′,6′,7′,8′-tetrahydro-5′,5′,8′,8′-tetramethylnaphthalen-2′-yl)carbamoyl]benzoic Acid]",growth of RPMI 8226 malignant cells,[1],inhibited the growth
same,growth of RPMI 8226 cells at low concentration,[1],do not stimulate but rather already in this low concentrations inhibit the growth
same,AML-193 cell proliferation at low concentrations,[2],reduce cell proliferation at low concentrations
"CC1(C)CC(C)(C)c2cc(C(=O)Nc3ccc(C(=O)O)c(F)c3)cc(Br)c2O1 [Compound 10, 2-Fluoro-4-[(2′,2′,4′,4′-tetramethyl-8′-bromochroman-6′-yl)carbamoyl]benzoic Acid]",IC50,[3],250 ng/mL
CC1(C)CC(C)(C)c2cc(C(=O)Nc3ccc(C(=O)O)c(F)c3)cc(C(F)(F)F)c2O1 [Compound 12],growth of RPMI 8226 malignant cells,[1],inhibited the growth
same,growth of RPMI 8226 cells at low concentration,[1],do not stimulate but rather already in this low concentrations inhibit the growth
same,AML-193 cell proliferation at low concentrations,[2],reduce cell proliferation at low concentrations
CC1(C)CC(C)(C)c2cc(C(=O)Nc3ccc(C(=O)O)c(F)c3)cc(I)c2O1 [Compound 18],weight loss compared to control,"[4]; daily doses up to 90 μmol/kg/day in corn oil for 3 days, FIG. 6, FIG. 7",virtually no weight loss even in the high dose of 90 μmol/kg/day
same,IC50,[3],220 ng/mL
same,Abrasion Score,[5]; dose 100 nanomol/25 g topical,1
same,Body Weight % gain or (loss),[5]; dose 100 nanomol/25 g topical,8 ± 7%
same,Composite Score,[5]; dose 100 nanomol/25 g topical,1 ± 1
same,Flaking Score,[5]; dose 100 nanomol/25 g topical,0
same,Mortality (out of 4),[5]; dose 100 nanomol/25 g topical,0 out of 4
same,Abrasion Score,[5]; dose 1000 nanomol/25 g topical,1
same,Body Weight % gain or (loss),[5]; dose 1000 nanomol/25 g topical,4 ± 1%
same,Composite Score,[5]; dose 1000 nanomol/25 g topical,2 ± 0
same,Flaking Score,[5]; dose 1000 nanomol/25 g topical,1
same,Mortality (out of 4),[5]; dose 1000 nanomol/25 g topical,0 out of 4
same,AML-193 cell proliferation at low concentrations,[2],reduce cell proliferation at low concentrations
CC(C)(C)c1cc(C(=O)Nc2ccc(C(=O)O)cc2)cc(C(C)(C)C)n1 [Compound 44],Kd,RXRβ,> 1000 nM
same,Kd,RXRΓ,> 1000 nM
CC(C)(C)c1cc(C(=O)Nc2ccc(C(=O)O)c(F)c2)c(O)c(C(C)(C)C)c1 [Compound 48],Kd,RXRβ,> 1000 nM
same,Kd,RXRΓ,> 1000 nM
C/C(=C\c1ccc(C(=O)O)cc1)c1ccc2c(c1)C(C)(C)CCC2(C)C [TTNPB],weight loss in similar tests,[4]; similar tests,very significant weight loss
same,IC50,[3],0.01 ng/mL
same,Abrasion Score,[5]; dose 0.9 nanomol/25 g topical,3
same,Body Weight % gain or (loss),[5]; dose 0.9 nanomol/25 g topical,5 ± 2%
same,Composite Score,[5]; dose 0.9 nanomol/25 g topical,8 ± 2
same,Flaking Score,[5]; dose 0.9 nanomol/25 g topical,5
same,Mortality (out of 4),[5]; dose 0.9 nanomol/25 g topical,0 out of 4
same,Abrasion Score,[5]; dose 2.7 nanomol/25 g topical,3
same,Body Weight % gain or (loss),[5]; dose 2.7 nanomol/25 g topical,(4 ± 3) %
same,Composite Score,[5]; dose 2.7 nanomol/25 g topical,9 ± 2
same,Flaking Score,[5]; dose 2.7 nanomol/25 g topical,6
same,Mortality (out of 4),[5]; dose 2.7 nanomol/25 g topical,0 out of 4
same,Abrasion Score,[5]; dose 9 nanomol/25 g topical,5
same,Body Weight % gain or (loss),[5]; dose 9 nanomol/25 g topical,(11 ± 3) %
same,Composite Score,[5]; dose 9 nanomol/25 g topical,11 ± 2
same,Flaking Score,[5]; dose 9 nanomol/25 g topical,7
same,Mortality (out of 4),[5]; dose 9 nanomol/25 g topical,0 out of 4
same,skin irritation (summary in words),"[5]; topical, hairless mice, RARα selective compound up to 1000 nmol/25 g",much more serious skin irritation
